Measurements reported in publication PMC3940698 (PLoS ONE, 2014).
Like-named read-outs stand apart in the source and are kept apart here.

Legend:
CYP2C9 [1] = molecular target: T1, CYP2C9 (Homo sapiens, UniProt P11712); test: CYP2C9 baculosomes, diclofenac hydroxylation, inhibition; format: biochemical; settings: for Localized Ki, Chance equation / Localized Ki, Cheng-Prusoff equation / Ki / Global Ki, linear regression / Global Ki, non-linear regression: CYP2C9+Diclof;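 for all read-outs here: reactions run at 27 °C in 100 mM potassium phosphate, pH 7.4, in a 250 µl volume, with hydroxylated product quantified from HPLC peak areas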
T1 construct: purchased Life Technologies (and Panvera), Invitrogen
T1 sequence (P11712 whole entry): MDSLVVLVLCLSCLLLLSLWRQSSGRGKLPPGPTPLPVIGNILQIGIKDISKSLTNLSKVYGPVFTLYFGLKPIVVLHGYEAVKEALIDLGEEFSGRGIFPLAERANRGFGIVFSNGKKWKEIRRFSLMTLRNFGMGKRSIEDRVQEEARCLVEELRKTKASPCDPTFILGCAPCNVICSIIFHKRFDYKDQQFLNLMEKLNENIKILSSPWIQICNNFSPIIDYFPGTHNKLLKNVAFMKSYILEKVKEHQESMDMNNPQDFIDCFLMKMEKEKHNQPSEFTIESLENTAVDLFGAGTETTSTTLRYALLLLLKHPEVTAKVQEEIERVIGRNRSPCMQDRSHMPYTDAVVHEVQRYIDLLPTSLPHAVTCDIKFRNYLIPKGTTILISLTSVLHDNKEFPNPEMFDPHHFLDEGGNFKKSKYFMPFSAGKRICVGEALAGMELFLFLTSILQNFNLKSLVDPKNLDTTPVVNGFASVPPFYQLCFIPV

CYP3A4 = molecular target: T2, CYP3A4 (Homo sapiens, UniProt P08684); test: CYP3A4 baculosomes, diclofenac or pNP product formation; format: biochemical; settings: CYP3A4 baculosomes 20 nM, inhibitor equivalent amount, 30 minutes
T2 construct: host or cells: baculosomes
T2 sequence (P08684 2-503 limits assumed): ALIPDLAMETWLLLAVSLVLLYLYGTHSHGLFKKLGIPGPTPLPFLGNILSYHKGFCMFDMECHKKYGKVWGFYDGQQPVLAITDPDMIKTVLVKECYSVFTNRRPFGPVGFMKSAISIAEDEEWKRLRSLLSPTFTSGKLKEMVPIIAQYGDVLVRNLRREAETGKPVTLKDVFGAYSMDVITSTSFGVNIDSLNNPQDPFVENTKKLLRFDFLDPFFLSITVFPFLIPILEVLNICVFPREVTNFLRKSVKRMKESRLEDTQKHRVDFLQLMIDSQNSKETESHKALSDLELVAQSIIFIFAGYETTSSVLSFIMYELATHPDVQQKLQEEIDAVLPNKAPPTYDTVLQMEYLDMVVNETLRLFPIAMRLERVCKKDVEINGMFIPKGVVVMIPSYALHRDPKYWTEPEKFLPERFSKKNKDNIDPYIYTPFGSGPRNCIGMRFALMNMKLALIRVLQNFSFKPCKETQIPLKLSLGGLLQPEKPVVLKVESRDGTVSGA

CYP2E1 [2] = molecular target: T3, CYP2E1 (Homo sapiens, UniProt P05181); test: CYP2E1 baculosomes, pNP reaction; settings: for Ki, Cheng-Prusoff method (in words): pNP reactions, CYP2E1 baculosomes, inhibitor 10 nM
T3 sequence (P05181 whole entry): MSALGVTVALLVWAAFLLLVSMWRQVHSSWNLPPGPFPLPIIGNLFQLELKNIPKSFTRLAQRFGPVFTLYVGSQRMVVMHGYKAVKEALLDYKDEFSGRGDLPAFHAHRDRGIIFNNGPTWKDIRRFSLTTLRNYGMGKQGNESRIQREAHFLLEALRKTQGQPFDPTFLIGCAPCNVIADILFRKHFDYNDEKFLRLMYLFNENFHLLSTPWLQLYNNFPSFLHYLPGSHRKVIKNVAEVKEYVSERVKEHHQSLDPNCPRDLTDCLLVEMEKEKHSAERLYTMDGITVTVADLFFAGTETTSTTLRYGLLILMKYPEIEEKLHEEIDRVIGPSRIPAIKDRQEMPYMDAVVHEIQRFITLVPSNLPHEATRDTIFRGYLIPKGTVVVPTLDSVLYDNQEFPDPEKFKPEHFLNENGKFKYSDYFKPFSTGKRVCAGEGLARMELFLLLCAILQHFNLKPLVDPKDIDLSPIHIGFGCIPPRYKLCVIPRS

CYP2D6 = molecular target: T4, CYP2D6 (Homo sapiens, UniProt P10635); test: CYP2D6 baculosomes, diclofenac or pNP product formation; format: biochemical; settings: CYP2D6 baculosomes 20 nM, inhibitor equivalent amount, 30 minutes
T4 construct: host or cells: baculosomes
T4 sequence (P10635 whole entry): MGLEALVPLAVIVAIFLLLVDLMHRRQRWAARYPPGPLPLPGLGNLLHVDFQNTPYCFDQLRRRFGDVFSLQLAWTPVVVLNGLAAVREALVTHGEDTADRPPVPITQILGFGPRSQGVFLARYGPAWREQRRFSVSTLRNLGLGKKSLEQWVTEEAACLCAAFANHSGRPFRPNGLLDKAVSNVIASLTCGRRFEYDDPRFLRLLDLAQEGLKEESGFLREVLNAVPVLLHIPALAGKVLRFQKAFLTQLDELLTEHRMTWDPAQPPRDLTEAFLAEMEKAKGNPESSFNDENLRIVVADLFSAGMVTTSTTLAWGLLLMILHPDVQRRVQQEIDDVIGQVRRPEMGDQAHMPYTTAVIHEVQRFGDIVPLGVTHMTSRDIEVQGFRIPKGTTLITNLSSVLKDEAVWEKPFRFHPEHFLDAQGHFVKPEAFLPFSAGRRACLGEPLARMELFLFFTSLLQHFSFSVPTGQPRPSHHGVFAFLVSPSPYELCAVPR

[3] = molecular target: rat liver microsomes (mixed CYPs); test: Rat liver microsomes, diclofenac hydroxylation, inhibition; format: biochemical; settings: for Global Ki, non-linear regression: KM taken as 10 µM
Description: In some reactions, another method was used.

[4] = test system: various CYPs tested (CYP2C9, CYP3A4, CYP2D6, CYP2E1); test: Ki of BzBr for the various CYPs tested (baculosomes, Diclof or pNP); settings: equivalent substrate-BzBr concentrations
CYP2E1 [5] = molecular target: T3, CYP2E1
CYP2C9 [6] = molecular target: T1, CYP2C9; settings: ref [4]-[6]; cited from earlier work
[7] = [I] 1 µM, read-out: Localized Ki, Cheng-Prusoff equation
[8] = [I] 100 µM, read-out: Localized Ki, Cheng-Prusoff equation
[9] = 10 nM CYP, 100 µM diclofenac, 200 µM NADPH
[10] = KM taken as 10 µM, 10 nM CYP, 100 µM diclofenac, 200 µM NADPH
[11] = Microsomes+Diclof, 0.5 µM CYP, 200 µM diclofenac, 400 µM NADPH
[12] = [I] 0.01 µM, read-out: Localized Ki, Chance equation
[13] = [I] 0.01 µM, read-out: Localized Ki, Cheng-Prusoff equation
[14] = [I] 1 µM, read-out: Localized Ki, Chance equation

## Benzothiadiazole
CYP2C9 [1]; CYP2C9 baculosomes 20 nM, 80 µM Diclof, inhibitor equivalent amount, 250 µM NADPH, 30 minutes
  Relative percentage of hydroxylated product formed vs positive control: 90.1%
CYP3A4; 80 µM Diclof
  Relative percentage of hydroxylated product formed vs positive control: 17%
CYP3A4; 80 µM pNP
  Relative percentage of hydroxylated product formed vs positive control: ∼15%
CYP2E1 [2]; CYP2E1 baculosomes 20 nM, 80 µM pNP, inhibitor equivalent amount, 30 minutes
  Relative percentage of hydroxylated product formed vs positive control: 15%
CYP2D6; 80 µM Diclof
  Relative percentage of hydroxylated product formed vs positive control: 0.3%
CYP2D6; 80 µM pNP
  Relative percentage of hydroxylated product formed vs positive control: ∼15%

## COc1cc(Br)c(O)c(Br)c1 [DBMP]
CYP2C9 [1]; [I] 0.01 µM
  Localized Ki, Chance equation: -
  Localized Ki, Cheng-Prusoff equation: -
CYP2C9 [1]; [7]
  Ki: 306 nM
CYP2C9 [1]; [8]
  Ki: 95400 nM
CYP2E1 [2]
  Ki, Cheng-Prusoff method (in words): low nM ranges

## CCc1oc2ccccc2c1C(=O)c1ccc(OC)cc1 [MeOBzr]
CYP2C9 [1]; [9]
  Global Ki, linear regression: -
CYP2C9 [1]; [10]
  Global Ki, non-linear regression: -
[3]; Microsomes+Diclof, 0.5 µM CYP, 200 µM diclofenac, 400 µM NADPH, read-out: Global Ki, linear regression
  Ki: 242 nM

## CCc1oc2ccccc2c1C(=O)c1cc(Br)c(O)c(Br)c1 [BzBr, benzbromarone]
CYP2E1 [2]
  Ki, Cheng-Prusoff method (in words): low nM ranges
[4]
  Ki derived from calculations (in words): Submicromolar
[3]; [11]
  Global Ki, linear regression: -
  Global Ki, non-linear regression: -

## NC(Cc1cc(I)c(O)c(I)c1)C(=O)O (centres unmarked) [DIT]
CYP2C9 [1]; [9]
  Global Ki, linear regression: -
CYP2C9 [1]; [10]
  Global Ki, non-linear regression: -
CYP2C9 [1]; [12]
  Ki: 5.5 nM
CYP2C9 [1]; [13]
  Ki: 0.7 nM
CYP2C9 [1]; [I] 1 µM
  Localized Ki, Chance equation: -
  Localized Ki, Cheng-Prusoff equation: -
CYP2C9 [1]; [8]
  Ki: 42600 nM

## O=C(O)c1cc(Br)c(O)c(Br)c1 [DBHB]
CYP2C9 [1]; [12]
  Ki: 6.4 nM
CYP2C9 [1]; [14]
  Ki: 97700 nM
CYP2C9 [1]; [7]
  Ki: 89.9 nM
CYP2C9 [1]; [8]
  Ki: 8680 nM
CYP2C9 [1]; CYP2C9 baculosomes
  Ki via non-linear regression (in words): sub-nanomolar
CYP2C9 [1]; CYP2C9 baculosomes, same experimental data
  Ki via linear regression analysis (in words): supra-millimolar
CYP2E1 [2]
  Ki, Cheng-Prusoff method (in words): low nM ranges

## CCc1oc2ccccc2c1C(=O)c1cc(I)c(OC)c(I)c1 [MeOBzIr]
CYP2C9 [1]; [9]
  Global Ki, linear regression: -
CYP2C9 [1]; [10]
  Global Ki, non-linear regression: -

## Oc1c(Br)cccc1Br [DBP]
CYP2C9 [1]; [7]
  Ki: 2610 nM
CYP2C9 [1]; [I] 100 µM
  Localized Ki, Chance equation: -
  Localized Ki, Cheng-Prusoff equation: -
CYP2C9 [1]; CYP2C9 baculosome system, 10 nM
  Ki at 10 nM inhibitor (in words): nanomolar
CYP2C9 [1]; CYP2C9 baculosome system, 1 µM
  Ki at 1 µM inhibitor (in words): micromolar
CYP2C9 [1]; CYP2C9 baculosome system, 100 µM
  Inhibition at 100 µM: failed to give any inhibition
CYP2E1 [2]
  Ki, Cheng-Prusoff method (in words): low nM ranges
[3]; mixed microsomes, 100 µM
  Inhibition at 100 µM: failed to give any inhibition

## vitamin E [Vit. E]
CYP2C9 [1]; baculosome reaction setup
  Ki (in words): ∼nM

## CCc1oc2ccccc2c1C(=O)c1cc(I)c(O)c(I)c1 [BzIr, benziodarone]
CYP2C9 [1]; 10 nM CYP, 100 µM diclofenac, 200 µM NADPH, read-out: Global Ki, linear regression
  Ki: 30900 nM
CYP2C9 [1]; KM taken as 10 µM, 10 nM CYP, 100 µM diclofenac, 200 µM NADPH, read-out: Global Ki, non-linear regression
  Ki: 2.8 nM
CYP2C9 [1]; [12]
  Ki: 243 nM
CYP2C9 [1]; [13]
  Ki: 2.6 nM
CYP2C9 [1]; [14]
  Ki: 995 nM
CYP2C9 [1]; [7]
  Ki: 9.1 nM
CYP2C9 [1]; [I] 100 µM, read-out: Localized Ki, Chance equation
  Ki: 190000 nM
CYP2C9 [1]; [8]
  Ki: 650 nM
CYP2E1 [5]
  Ki, Cheng-Prusoff method (in words): low nM ranges
CYP2C9 [6]
  Ki: ≤ 1 nM
[3]; [11]
  Global Ki, linear regression: -
  Global Ki, non-linear regression: -

## CCc1oc2ccccc2c1C(=O)c1cc(Br)c(OC)c(Br)c1 [MeOBzBr]
[3]; read-out: Ki at 100 µM inhibitor, microsome setups, 100 µM inhibitor
  Ki: 3700 nM
